Tests used:
[1] = Study 1: body weight and food intake in DIO mice, linagliptin monotreatment for 14 days; assay type: in vivo, C57BL/6J mice; details: linagliptin 3 mg/kg/day s.c.
Method: (§1) The Danish Animal Experiments Inspectorate approved all experiments which were conducted using internationally accepted principles for the use of laboratory animals (license #2013-15-2934-00784). The study was carried out in compliance with the ARRIVE guidelines. 99 C57BL/6J mice were from Janvier Labs (Le Genest Saint Isle, France) and housed in a controlled environment (12 h light/dark cycle, lights on at 3 AM, 21 ± 2 °C, humidity 50 ± 10%). Each animal was identified by an implantable subcutaneous microchip (PetID Microchip, E-vet, Haderslev, Denmark). Mice arrived at 5 weeks of age and were made diet-induced obese (DIO) by offering ad libitum access to tap water and high-fat diet (5.15 kcal/g; 60 kcal-% fat, 20 kcal-% carbohydrate, 20% kcal-% protein; D12492, Ssniff, Soest, Germany) for 26–27 weeks before study start. The mice were kept on the diet throughout the study.
(§2) DIO mice were randomized into individual treatment groups (n = 9–10 per group) based on body weight measured 3 days prior to initiation of drug treatment. Vehicle was phosphate-buffered saline added 5% mannitol. […] All drugs were administered once daily at 1 h before lights off. The first dose was given on day 0. Body weight and food intake was monitored daily during the treatment period.

[2] = Linagliptin exposure in plasma by LC-MS/MS; assay type: in vivo, C57BL/6J mice; details: DIO mice, 3 mg/kg/day s.c. once daily, day 14, before (approx. 24 h after previous dose) and 4 h after last dose
[3] = Plasma analytes in DIO mice (active GLP-1, GIP, insulin, metabolic markers); assay type: in vivo, C57BL/6J mice; details: study 1, linagliptin 3 mg/kg/day s.c., 4 h post-dosing
Method: Terminal cardiac blood samples were collected in EDTA-coated tubes with (for GLP-1 and GIP analysis) or without (for DPP-IV enzyme analysis) 10 µl DPP-IV inhibitor/ml blood (Millipore, Copenhagen, Denmark) prior to sampling. Plasma was separated by centrifugation (3000 × g for 10 min at 4 °C) and immediately frozen on dry ice and stored at − 80 °C until further analysis. DPP-IV enzyme catalytic activity was determined as reported previously. Active GLP-1 and GIP levels were assessed by ELISA (#K150JWC, MesoScale Discovery, Rockville, MD; #27702, IBL, Fujioka, Japan) according to the manufacturer’s instructions. Plasma levels of insulin were measured by ELISA (#K152BZC, MesoScale Discovery, Rockville, MD), according to the manufacturer’s instructions.

[4] = Study 2: body weight and food intake in DIO mice, 14 days of treatment then 6 days of wash-out; assay type: in vivo, C57BL/6J mice; details: linagliptin 3 mg/kg or Y2R agonist 3 or 30 nmol/kg s.c. once daily for 14 days
Method: as §1, §2

[5] = Oral glucose tolerance test in DIO mice; assay type: in vivo, C57BL/6J mice; details: study 2; treatment day 12; 4 h fast; 2 g/kg oral glucose; blood glucose 0–240 min; compared to vehicle dosing
Method: In study 2, an oral glucose tolerance test (OGTT) was performed one week prior to treatment start (day -7) and on treatment day 12. Animals were fasted for 4 h prior to OGTT. At t = 0 an oral glucose load (2 g/kg glucose; 200 mg/mL, Fresenius Kabi, Sweden) was administered via a gastrically placed tube. Blood samples for measuring blood glucose were collected from the tail vein at t = 0, 15, 30, 60, 120, 180, 240 min. A pre-OGTT blood sample was collected at − 60 min (OGTT on day − 7) and − 240 min (OGTT on treatment day 12). Glucose area under the curve (AUC) calculations were determined as total AUC from the sampling period of 0 to 240 min.

[6] = tested on: dipeptidyl peptidase IV (DPP-IV); details: in the circulation; inactivation by DPP-IV; cited from earlier work
Text: Defective pancreatic β-cell function is a key pathological hallmark in type 2 diabetes (T2D). Because progressive loss of β-cell insulin secretory capacity is associated with worsening hyperglycemia, targeting intrinsic β-cell activity is considered essential in T2D management. A canonical role of the gut-derived incretin hormone glucagon-like peptide-1 (GLP-1) is potentiation of glucose-stimulated insulin secretion by activation of GLP-1 receptors in islet β-cells. The incretin effect is estimated to account for approximately 50–70% of total insulin secreted following oral glucose administrat ...

[7] = biological target: T1, DPP-IV (Homo sapiens, UniProt P27487); test: Degradation of synthetic NPY1–36 and PYY1–36 in human plasma (control samples); assay type: in vitro ADME; details: 30 pmol peptide in 85 µl PBS + 5 µl human EDTA-plasma, 37 °C, no linagliptin, MALDI-TOF-MS
T1 construct: Human plasma was used as source of endogenous DPP-IV; from tissue; host or cells: human EDTA-plasma from healthy adult donors
T1 sequence (P27487 39-766 limits assumed): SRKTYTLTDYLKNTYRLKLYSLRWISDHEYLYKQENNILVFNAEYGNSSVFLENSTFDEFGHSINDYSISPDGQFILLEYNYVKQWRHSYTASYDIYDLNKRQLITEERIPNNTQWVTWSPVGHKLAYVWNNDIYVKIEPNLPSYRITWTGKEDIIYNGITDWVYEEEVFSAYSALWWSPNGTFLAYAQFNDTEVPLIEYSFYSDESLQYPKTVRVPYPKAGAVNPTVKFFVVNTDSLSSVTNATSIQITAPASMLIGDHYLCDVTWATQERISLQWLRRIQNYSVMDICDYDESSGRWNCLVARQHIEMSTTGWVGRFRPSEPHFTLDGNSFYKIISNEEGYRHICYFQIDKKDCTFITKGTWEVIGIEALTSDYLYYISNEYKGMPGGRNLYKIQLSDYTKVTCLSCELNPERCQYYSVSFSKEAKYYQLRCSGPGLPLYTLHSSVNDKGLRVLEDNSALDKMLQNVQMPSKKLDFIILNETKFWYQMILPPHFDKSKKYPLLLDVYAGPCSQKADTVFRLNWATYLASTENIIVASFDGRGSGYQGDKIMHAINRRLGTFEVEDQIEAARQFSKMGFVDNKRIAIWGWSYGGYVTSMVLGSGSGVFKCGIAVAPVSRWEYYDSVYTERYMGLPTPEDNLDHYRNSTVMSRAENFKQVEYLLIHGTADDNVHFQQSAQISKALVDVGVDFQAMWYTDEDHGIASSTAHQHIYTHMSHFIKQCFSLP
Method: Human plasma was used as source of endogenous DPP-IV. Healthy adult individuals were enrolled after they provided written informed consent. […] Blood samples were collected from the cubital vein into blood collection tubes (EDTA-plasma). […] Plasma aliquots were transferred into 2 ml vials and stored − 80 °C. […] Parent NPY, PYY and corresponding fragments were determined by matrix-assisted laser desorption/ionization time-of-flight mass spectrometry (MALDI-TOF–MS) as described previously[34].

CC#CCn1c(N2CCC[C@@H](N)C2)nc2c1c(=O)n(Cc1nc(C)c3ccccc3n1)c(=O)n2C [linagliptin]
food intake ([1]; 14 days): essentially unaffected | weight loss compared to vehicle controls ([1]; 14 days of treatment, p < 0.05): 2.8% | plasma linagliptin exposure [2]: ~ 200 nM | terminal plasma insulin levels ([3]; day 14): unaffected | plasma TNF-α concentration ([3]; terminal, 14 days): significantly reduced | plasma pancreatic polypeptide ([3]; terminal, 14 days): unaffected | plasma resistin concentration ([3]; terminal, 14 days): significantly reduced | plasma total PYY ([3]; terminal, 14 days): unaffected | food intake [4]: did not influence food intake | oral glucose tolerance [5]: significantly improved glucose tolerance

glucagon-like peptide-1 [GLP-1_7–36]
circulatory half-life [6]: approximately 1 min

PYY: synthetic human full-length PYY1–36 used as DPP-IV substrate [peptide YY]
fraction of PYY processed ([7]; 18 h): 30%-50%

neuropeptide Y [NPY]
fraction of NPY processed by DPP-IV ([7]; 8 h): approximately two-thirds
